Measured values: patent US20030215896A1, “Gamma secretase substrates and in vitro assays” (priority 2003, published 2003)

Key:
[1] = test system: γ-secretase (HeLa cell membranes); assay: Extraction of γ-secretase activity from HeLa cell membranes with CHAPSO detergent; type: biochemical, human
Procedure: HeLa S3 cells from American Type Culture Collection (Rockville, Md.) were grown in bioreactors (Analytical Biological Services; Wilmington, Del.) in 90% DMEM, 10% fetal bovine serum, 2 mM glutamine and 100 μg/ml each of penicillin and streptomycin. […] The cells were broken by single-pass through a French Press (Spectronic Instruments, Rochester, N.Y.). Cell debris and nuclei were removed by centrifugation at 800×g for 10 minutes. The supernatant solutions were centrifuged at 100,000×g for 60 minutes. The ensuing pellets were resuspended in buffer A and the centrifugation was repeated. The final membrane pellets were resuspended in buffer A to yield a protein concentration of approximately 12 mg/ml. All procedures were performed at 4° C. The membranes were stored at −70° C. […] The supernatant solutions (solubilized fractions) and the pellets (membrane fractions) were then assayed for γ-secretase activity with the SEQ. ID. NO. 9 substrate. […] The ensuing supernatant solution provides “solubilized γ-secretase”. […] In vitro assays measuring γ-secretase activity were performed using cell membranes or as “solubilized γ-secretase”. In one reaction, SEQ. ID. […] ID. NO. 9 substrate at 37° C. in the presence of detergent in buffer B.

[2] = test system: γ-secretase (HeLa cell membranes); assay: In vitro γ-secretase assay with HeLa cell membranes and SEQ. ID. NO. 9 substrate in presence of detergent, ECL; type: biochemical, human; conditions: detergent 0.75%
[3] = test system: γ-secretase (HeLa cell membranes); assay: as above; type: biochemical, human; conditions: for Effect of detergent on in vitro γ-secretase cleavage of substrate: SEQ. ID. NO. 9 substrate
Procedure: HeLa S3 cells from American Type Culture Collection (Rockville, Md.) were grown in bioreactors (Analytical Biological Services; Wilmington, Del.) in 90% DMEM, 10% fetal bovine serum, 2 mM glutamine and 100 μg/ml each of penicillin and streptomycin. Frozen HeLa S3 cells were resuspended in buffer A (50 mM MES, pH 6.0, 5 mM MgCl2, 5 mM CaCl2, 150 mM KCl) containing “complete” protease inhibitor cocktail (Boehringer Mannheim, Indianapolis, Ind.). The cells were broken by single-pass through a French Press (Spectronic Instruments, Rochester, N.Y.). Cell debris and nuclei were removed by centrifugation at 800×g for 10 minutes. The supernatant solutions were centrifuged at 100,000×g for 60 minutes. The ensuing pellets were resuspended in buffer A and the centrifugation was repeated. The final membrane pellets were resuspended in buffer A to yield a protein concentration of approximately 12 mg/ml. All procedures were performed at 4° C. The membranes were stored at −70° C.
In vitro assays measuring γ-secretase activity were performed using cell membranes or as “solubilized γ-secretase”. In one reaction, SEQ. ID. NO. 9 substrate (1.7 μM) was incubated with cell membranes (0.5 mg/ml) in presence of detergent in buffer B (50 mM PIPES, pH 7.0, 5 mM MgCl2, 5 mM CaCl2, 150 mM KCl) at 37° C. In another reaction, supernatant solution from CHAPSO-extracted HeLa cell membranes (“solubilized γ-secretase”) was incubated with SEQ. ID. NO. 9 substrate at 37° C. in the presence of detergent in buffer B. Generally, 0.25% CHAPSO was provided as the detergent. The reactions were stopped by adding RIPA (150 mM NaCl, 1.0% NP-40, 0.5% DOC, 0.1% SDS, 50 mM Tris HCl, pH 8.0).
The samples were centrifuged and the supernatant solutions were assayed for the Aβ peptides by ECL. The Aβ40- and Aβ42-related products from γ-secretase-mediated processing of SEQ. ID. NO.
SEQ. ID. NO. 9 substrate (1.7 μM) was incubated with cell membranes (0.5 mg/ml) in presence of CHAPSO, CHAPS or Triton X-100 (0, 0.125, 0.25, 0.5, or 1%) in buffer B at 37° C.

[4] = target: γ-secretase (Cricetulus griseus, UniProt G3HNF2); assay: Radiolabeling pulse-chase of CHO/APP695 cells, 4G8 immunoprecipitation, SDS-PAGE; type: cell-based, Chinese hamster; conditions: 1 μM, data not shown
Procedure: The effect of a γ-secretase inhibitor on γ-secretase activity was measured using Chinese hamster ovary fibroblasts that stably express APP695 (CHO/APP695, provided by Dr. S. Sisodia (University of Chicago, Chicago, Ill.)). CHO/APP695 were grown in 90% DMEM, 10% fetal bovine serum, 2 mM glutamine, 100 μg/ml each of penicillin and streptomycin, and 0.2 mg/ml G418. CHO/APP695 cells were seeded in 96-well dishes at 2×10^4 cells/well. Aβ-peptide formation was detected by either ECL or using radiolabeling.
For the radiolabeling experiments, CHO/APP695 cells (in 100 mm dishes) were grown to 70% confluency in complete media. Afterwards, these cells were cultured±1 μM L-685,458 for 24 hours, switched to Met-free medium (±1 μM L-685,458) for 20 minutes, pulsed with 1 mCi/ml of S^35-Met (Amersham Life Sciences, Inc, Arlington Heights, Ill.) in Met-free medium (±1 μM L-685,458) for 2 hours, and subsequently chased in complete medium (±1 μM L-685,458) for 45 minutes. The cells were washed with Hanks balanced salt solution and lysed with 1 ml of RIPA. The insoluble residue was removed by centrifugation. The 4G8 antibody (final concentration, 2 μg/ml) was added to the supernatant fractions. The samples were gently rotated overnight at 4° C. Protein G-agarose beads (Pharmacia Biotech, Piscataway, N.J.) were added the next day, the samples were rotated for an additional 2 hours and then centrifuged. […]

[5] = test system: solubilized γ-secretase (CHAPSO-extracted HeLa cell membranes); assay: In vitro γ-secretase assay with "solubilized γ-secretase" and SEQ. ID. NO. 9 substrate, ECL; type: biochemical, human; conditions: solubilized γ-secretase
Procedure: (§1) The ensuing supernatant solution provides “solubilized γ-secretase”.
(§2) In vitro assays measuring γ-secretase activity were performed using cell membranes or as “solubilized γ-secretase”. In one reaction, SEQ. ID. NO. […] ID. NO.

[6] = target: T1, solubilized γ-secretase (CHAPSO-extracted HeLa cell membranes) (Homo sapiens, UniProt P49768); assay: as above; type: biochemical; conditions: assaying for Aβ40 cleavage, FIG. 2A; read-out: Apparent Km value of solubilized γ-secretase for substrate
T1 construct: ID; NO; 9 su
Procedure: as §1, §2

[7] = target: solubilized γ-secretase (supernatant solution from 1% CHAPSO-extracted HeLa S3 cell membranes); assay: cell-based or functional assay

Row | Compound | M-Aβ 40 production [2] | Effect of detergent on in vitro γ-secretase cleavage of substrate ([3]; HeLa cell membranes) | M-Aβ 40 production ([3]; detergent 0.125%) | M-Aβ 40 production ([3]; detergent 0.25%) | M-Aβ 40 production ([3]; detergent 0.5%) | M-Aβ 40 production ([3]; detergent 1%) | also measured
1 | C[C@H](CCC(=O)NCCC[N+](C)(C)CC(O)CS(=O)(=O)[O-])[C@H]1CC[C@H]2[C@@H]3[C@H](O)C[C@@H]4C[C@H](O)CC[C@]4(C)[C@H]3C[C@H](O)[C@]12C (some centres unmarked) [CHAPSO] | 0.07 ECL signal × 10^−6 | promotes cleavage at the γ-secretase scissile bond | 2.2 ECL signal × 10^−6 | 8.74 ECL signal × 10^−6 | 1.22 ECL signal × 10^−6 | 0.03 ECL signal × 10^−6 | % of total γ-secretase activity in Membranes fraction ([1]; CHAPSO 0.25%): 97%; % of total γ-secretase activity in Solubilized fraction ([1]; CHAPSO 0.25%): 3%; % of total γ-secretase activity in Membranes fraction ([1]; CHAPSO 0.50%): 65%; % of total γ-secretase activity in Solubilized fraction ([1]; CHAPSO 0.50%): 35%; % of total γ-secretase activity in Membranes fraction ([1]; CHAPSO 1.00%): 51%; % of total γ-secretase activity in Membranes fraction ([1]; CHAPSO 2.0%): 50%; % of total γ-secretase activity in Solubilized fraction ([1]; CHAPSO 2.0%): 50%; Detergent concentration giving optimal γ-secretase activity ([3]; HeLa cell membranes): 0.25%
2 | C[C@H](CCC(=O)NCCC[N+](C)(C)CCCS(=O)(=O)[O-])[C@H]1CC[C@H]2[C@@H]3[C@H](O)C[C@@H]4C[C@H](O)CC[C@]4(C)[C@H]3C[C@H](O)[C@]12C [CHAPS] | 0.04 ECL signal × 10^−6 | promotes cleavage at the γ-secretase scissile bond | 0.03 ECL signal × 10^−6 | 3.21 ECL signal × 10^−6 | 0.27 ECL signal × 10^−6 | 0.03 ECL signal × 10^−6 | 
3 | CC(C)C[C@H](NC(=O)[C@H](Cc1ccccc1)C[C@@H](O)[C@H](Cc1ccccc1)NC(=O)OC(C)(C)C)C(=O)N[C@@H](Cc1ccccc1)C(N)=O [L-685,458] |  |  |  |  |  |  | Intracellular accumulation of APP fragments (α-CTF, β-CTF) [4]: intracellular accumulation of APP immunoreactive fragments that co-migrate with α-CTF and β-CTF
4 | SEQ. ID. NO. 9 substrate: γ-secretase substrate: fusion protein of N-terminal Met, APP597-695 (β-CTF domain) and C-terminal Flag tag DYKDDDDK |  |  |  |  |  |  | Aβ42/Aβ40 cleavage ratio ([3]; intact membranes): approximately 0.1; Aβ42/Aβ40 cleavage ratio [5]: approximately 0.1; Km [6]: ~1 µM
5 | Triton X-100 | 0.02 ECL signal × 10^−6 | fails to potentiate in vitro γ-secretase activity | 0.02 ECL signal × 10^−6 | 0.02 ECL signal × 10^−6 | 0.02 ECL signal × 10^−6 | 0.02 ECL signal × 10^−6 | 
6 | pepstatin (peptide) |  |  |  |  |  |  | IC50 for inhibiting the generation of the Aβ40 terminus (in vitro γ-secretase assay, ECL) [7]: 4 µM; IC50 for inhibiting the generation of the Aβ42 terminus (in vitro γ-secretase assay, ECL) [7]: 5.9 µM
